Target: T1, Chk1 (Homo sapiens, UniProt O14757)
T1 construct: purchased Upstate Biotechnology
T1 sequence (O14757 1-476): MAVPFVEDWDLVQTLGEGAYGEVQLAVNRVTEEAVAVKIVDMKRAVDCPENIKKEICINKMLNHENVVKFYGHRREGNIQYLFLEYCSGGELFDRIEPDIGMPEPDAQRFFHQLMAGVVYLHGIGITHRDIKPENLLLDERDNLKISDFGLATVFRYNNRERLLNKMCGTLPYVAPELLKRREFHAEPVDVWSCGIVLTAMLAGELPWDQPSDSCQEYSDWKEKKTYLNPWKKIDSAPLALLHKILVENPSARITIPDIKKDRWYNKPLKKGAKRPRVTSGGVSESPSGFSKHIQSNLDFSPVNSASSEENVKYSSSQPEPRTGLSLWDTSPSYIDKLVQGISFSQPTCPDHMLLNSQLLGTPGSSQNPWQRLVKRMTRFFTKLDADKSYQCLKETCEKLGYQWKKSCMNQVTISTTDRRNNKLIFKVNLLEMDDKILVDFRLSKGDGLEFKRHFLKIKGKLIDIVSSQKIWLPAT
Experiment: Chk1 kinase assay: incorporation of γ-33P ATP into immobilized myelin basic protein
Assay type: biochemical
Conditions: Table 11, Chk1 only; class symbols A-D; read-out: Chk1 IC50
How it was run: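 MBP coated on plates (20 μg/ml) was phosphorylated by Chk1 (10 nM) or Chk2 (20 nM) with γ-33P ATP plus 10 μM (Chk1) or 30 μM (Chk2) unlabeled ATP, 1 h at room temperature, 1% DMSO. Bound radioactivity was counted by scintillation after washing; IC50 or Ki derived from fitted rate data.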

SMILES | IC50
Nc1ncc(-c2cccc(S(=O)(=O)N[C@@H]3CCc4ccccc43)c2)nc1C(=O)N[C@H]1CCNC1 [Example 812, 3-amino-6-(3-{[(1R)-2,3-dihydro-1H-inden-1-ylamino]sulfonyl}phenyl)-N-[(3S)-pyrrolidin-3-yl]pyrazine-2-carboxamide] | 50 to 1000 nM
Nc1ncc(-c2cccc(C(=O)N[C@H]3CCc4ccccc43)c2)nc1-c1ncn(-c2ccncc2)n1 [Example 813, 3-[5-amino-6-(1-pyridin-4-yl-1H-1,2,4-triazol-3-yl)pyrazin-2-yl]-N-[(1S)-2,3-dihydro-1H-inden-1-yl]benzamide] | 1000 to 10000 nM
Nc1ncc(-c2cccc(C(=O)NCc3cc(F)c(F)c(F)c3)c2)nc1C(=O)N[C@H]1CCNC1 [Example 814, 3-amino-N-[(3S)-pyrrolidin-3-yl]-6-[3-({[(3,4,5-trifluorophenyl)methyl]amino}carbonyl)phenyl]pyrazine-2-carboxamide] | < 50 nM
Nc1ncc(-c2cccc(C(=O)NCc3c(F)ccc(F)c3F)c2)nc1C(=O)N[C@H]1CCNC1 [Example 815, 3-amino-N-[(3S)-pyrrolidin-3-yl]-6-[3-({[(2,3,6-trifluorophenyl)methyl]amino}carbonyl)phenyl]pyrazine-2-carboxamide] | 50 to 1000 nM
Nc1ncc(-c2cccc(C(=O)NCc3cc(F)cc(F)c3F)c2)nc1C(=O)N[C@H]1CCNC1 [Example 816, 3-amino-N-[(3S)-pyrrolidin-3-yl]-6-[3-({[(2,3,5-trifluorophenyl)methyl]amino}carbonyl)phenyl]pyrazine-2-carboxamide] | 50 to 1000 nM
Nc1ncc(-c2cccc(C(=O)NCc3ccc(F)c(Br)c3)c2)nc1C(=O)N[C@H]1CCNC1 [Example 817, 3-amino-6-[3-({[(3-bromo-4-fluorophenyl)methyl]amino}carbonyl)phenyl]-N-[(3S)-pyrrolidin-3-yl]pyrazine-2-carboxamide] | < 50 nM
CN1CCCC(c2n[nH]c(-c3nc(-c4cccc(C(=O)NCc5c(F)cccc5Cl)c4)cnc3N)n2)C1 (stereo not drawn) [Example 818, 3-{5-amino-6-[3-(1-methylpiperidin-3-yl)-1H-1,2,4-triazol-5-yl]pyrazin-2-yl}-N-[(2-chloro-6-fluorophenyl)methyl]benzamide] | 1000 to 10000 nM
Nc1ncc(-c2cccc(CN[C@H]3CCc4ccccc43)c2)nc1C(=O)NC1CN2CCC1CC2 (stereo partly drawn) [Example 819, 3-amino-N-1-azabicyclo[2.2.2]oct-3-yl-6-(3-{[(1S)-2,3-dihydro-1H-inden-1-ylamino]methyl}phenyl)pyrazine-2-carboxamide] | 50 to 1000 nM
Nc1ncc(-c2cccc(C(=O)NCc3ccc(Cl)cc3F)c2)nc1-c1nc([C@H]2CCCNC2)n[nH]1 [Example 820, 3-(5-amino-6-{3-[(3S)-piperidin-3-yl]-1H-1,2,4-triazol-5-yl}pyrazin-2-yl)-N-[(4-chloro-2-fluorophenyl)methyl]benzamide] | < 50 nM
Nc1ncc(-c2cccc(C(=O)NCc3ccccc3Cl)c2)nc1-c1nc([C@H]2CCCNC2)n[nH]1 [Example 821, 3-(5-amino-6-{3-[(3S)-piperidin-3-yl]-1H-1,2,4-triazol-5-yl}pyrazin-2-yl)-N-[(2-chlorophenyl)methyl]benzamide] | < 50 nM
CC(C)(C)OC(=O)N1CC[C@H](NC(=O)c2nc(-c3cccc(C(=O)NCc4ccc(Cl)cc4Cl)c3)cnc2N)C1 [Example 822, 1,1-dimethylethyl (3S)-3-[({3-amino-6-[3-({[(2,4-dichlorophenyl)methyl]amino}carbonyl)phenyl]pyrazin-2-yl}carbonyl)amino]pyrrolidine-1-carboxylate] | 1000 to 10000 nM
CC(C)(C)OC(=O)N1CC[C@H](NC(=O)c2nc(-c3cccc(C(=O)NCc4ccc(Cl)c(Cl)c4)c3)cnc2N)C1 [Example 823, 1,1-dimethylethyl (3S)-3-[({3-amino-6-[3-({[(3,4-dichlorophenyl)methyl]amino}carbonyl)phenyl]pyrazin-2-yl}carbonyl)amino]pyrrolidine-1-carboxylate] | 1000 to 10000 nM
